Experimental findings from paper PMC11458808, “Identification and development of a series of disubstituted piperazines for the treatment of Chagas disease” (European Journal of Medicinal Chemistry, 2022) are described below.

In brackets after ≈: the same amount, converted by molar mass.

Data set [1] deals with intracellular T. cruzi X10/7 A1 amastigotes. In words: Intracellular T. cruzi assay. It is filed as cell-based, Trypanosoma cruzi. The note with it: for EC50: Trypanosoma cruzi, read-out: T. cruzi (pEC50) (converted); for EC50 / T. cruzi (pEC50): potency against intracellular T. cruzi amastigotes, at least three independent replicates, standard deviations ≤0.2; for Activity in the intracellular T. cruzi assay (in words): purified compound. How it is done:
1.1 Intracellular T. cruzi assay: Potency against intracellular T. cruzi X10/7 A1 amastigotes was determined as described previously with as sole modification that the compound treatment duration was increased from 72h to 96h.

Data set [2] in a line: Intrinsic clearance in mouse liver microsomes. Type of data set: in vitro ADME. Particulars: mouse liver microsomal intrinsic clearance. Here is the method: 2.2 Intrinsic clearance: This assay was conducted as previously described in [5].
(In general: Microsomes from liver hold many membrane-bound enzymes, among them those of drug oxidation.)

Data set [3] in a line: Aqueous (kinetic) solubility by CAD. Particulars: kinetic solubility measured by CAD. Type of data set: physicochemical. How it is done: 2.1 Aqueous solubility: This assay was conducted as previously described in [4].
A short description of data set [4]: ChromLogD pH7.4 (chromatographic hydrophobicity index). It is filed as physicochemical. The note with it: pH 7.4, CHIpH7.4 × 0.0857–2; for chromatographic logD: read-out: ChromlogDpH7.4.

Broadly, the solubility is the dissolved amount per volume that the medium holds. A higher solubility goes with much dissolved substance. For the molecule `Cc1ccc(S(=O)(=O)Nc2ccc(CN[C@@H]3CCN(C(=O)c4cccc(Cl)c4)C3)cc2)cc1` [Compound 32, (R)-N-(4-(((1-(3-chlorobenzoyl)pyrrolidin-3-yl)amino)methyl)phenyl)-4-methylbenzenesulfonamide], the EC50 in data set [1] was 15.8 µM. Moreover, the “Mouse CLi” value in data set [2] came out at 48 mL/min/g. This molecule gave a solubility in data set [3] of 75 µM (≈ 36.3 µg/mL). Further, the chromatographic logD in data set [4] worked out at 4.9.
Taken in the same sequence, the figures for `Cc1ccc(S(=O)(=O)Nc2ccc(CN3CCN(C(=O)C4CCc5ccccc54)CC3)cc2)cc1` (stereo not drawn) [Compound 24, N-(4-((4-(2,3-dihydro-1H-indene-1-carbonyl)piperazin-1-yl)methyl)phenyl)-4-methylbenzenesulfonamide] were 3.98 µM, >50 mL/min/g, 35 µM (≈ 17.1 µg/mL) and 5.8.
With `COc1ccc(S(=O)(=O)Nc2ccc(CN3CCN(C(=O)c4ccc(OC)c(Cl)c4)CC3)cc2)cc1` [Compound 13, N-[4-[[4-(3-chloro-4-methoxy-benzoyl)piperazin-1-yl]methyl]phenyl]-4-methoxy-benzenesulfonamide], the EC50 in data set [1] is 3.16 µM. Further, the “Mouse CLi” value in data set [2] was >50 mL/min/g. The same molecule displayed a solubility in data set [3] of 18 µM (≈ 9.54 µg/mL). Further, the chromatographic logD in data set [4] turned out to be 5.1.
On to `Cc1ccc(S(=O)(=O)Nc2ccc(CN3CCC(NC(=O)c4cccc(Cl)c4)CC3)cc2)cc1` [Compound 37, 3-chloro-N-(1-(4-((4-methylphenyl)sulfonamido)benzyl)piperidin-4-yl)benzamide], for which, in data set [1], the EC50 was 3.16 µM. In data set [2], the “Mouse CLi” value is 37 mL/min/g. For the same molecule, the concentration in solution in data set [3] (solubility) came to 42 µM (≈ 20.9 µg/mL). The chromatographic logD in data set [4] came to 5.3.
The corresponding values for `Cc1ccc(S(=O)(=O)Nc2ccc(NC3CCN(C(=O)c4cccc(Cl)c4)CC3)cc2)cc1` [Compound 36, N-(4-((1-(3-chlorobenzoyl)piperidin-4-yl)amino)phenyl)-4-methylbenzenesulfonamide] are 20 µM, 25 mL/min/g, 18 µM (≈ 8.71 µg/mL) and 5.6.
Take `Cc1ccc(S(=O)(=O)Nc2ccc(CN3CCN(C(=O)Cc4coc5ccccc45)CC3)cc2)cc1` [Compound 25]: in data set [1], the “T. cruzi (pEC50)” value was 5.2. Moreover, in data set [2], the “Mouse CLi” value is recorded as >50 mL/min/g. The molecule further registered a solubility in data set [3] of 22 µM (≈ 11.1 µg/mL). Further, the ChromlogDpH7.4 in data set [4] came to 5.7.
Take `CC#CC(=O)N1CCN(Cc2ccc(NS(=O)(=O)c3ccc(C)cc3)cc2)CC1` [Compound 26, N-(4-((4-(but-2-ynoyl)piperazin-1-yl)methyl)phenyl)-4-methylbenzenesulfonamide]: in data set [1], the EC50 was > 50.1 µM and the “Activity in the intracellular T. cruzi assay (in words)” value was “inactive”. Moreover, the “Mouse CLi” value in data set [2] is recorded as >50 mL/min/g. The solubility in data set [3] turned out to be 367 µM (≈ 151 µg/mL). Moreover, in data set [4], the chromatographic logD amounted to 4.4.
Turning to `COc1ccc(S(=O)(=O)Nc2ccc(OC3CCN(C(=O)c4cccc(Cl)c4)CC3)cc2)cc1` [Compound 28, N-(4-((1-(3-chlorobenzoyl)piperidin-4-yl)oxy)phenyl)-4-methoxybenzenesulfonamide], in data set [1], the EC50 was 5.01 µM. Besides, the “Mouse CLi” value in data set [2] turned out to be 37 mL/min/g. The solubility in data set [3] is < 1 µM. Also, the chromatographic logD in data set [4] was 5.9.
On to `COc1ccc(S(=O)(=O)Nc2ccc(CN3CCN(C(=O)c4cccc(C)c4)CC3)cc2)cc1` [Compound 12], for which the EC50 in data set [1] was 1 µM. In data set [3], this molecule returned a solubility of 64 µM (≈ 30.7 µg/mL). For the same molecule, in data set [4], the chromatographic logD came to 5.1.
On to `COc1ccc(S(=O)(=O)Nc2ncc(CN3CCN(C(=O)c4cccc(Cl)c4)CC3)cn2)cc1` [Compound 42, N-(5-((4-(3-chlorobenzoyl)piperazin-1-yl)methyl)pyrimidin-2-yl)-4-methoxybenzenesulfonamide], for which, in data set [1], the EC50 was > 50.1 µM and the “Activity in the intracellular T. cruzi assay (in words)” value was “lacked any activity”. In addition, the “Mouse CLi” value in data set [2] is on record as 1.0 mL/min/g. Further, the solubility in data set [3] is ≥ 345 µM. In addition, the chromatographic logD in data set [4] is 3.1.
As for `COc1ccc(S(=O)(=O)Nc2ccc(CN3CCN(C(=O)C4CC(O)(C(F)(F)F)C4)CC3)cc2)cc1` (stereo not drawn) [Compound 22, N-(4-((4-(3-hydroxy-3-(trifluoromethyl)cyclobutane-1-carbonyl)piperazin-1-yl)methyl)phenyl)-4-methoxybenzenesulfonamide], the EC50 in data set [1] was > 50.1 µM. Besides, the “Mouse CLi” value in data set [2] was 8.0 mL/min/g. Besides, the solubility in data set [3] was ≥ 374 µM. Also, in data set [4], the chromatographic logD turned out to be 4.3.
Consider `N#Cc1ccc(S(=O)(=O)Nc2ccc(CN3CCN(C(=O)c4cccc(Cl)c4)CC3)cc2)cc1` [Compound 5, N-(4-((4-(3-chlorobenzoyl)piperazin-1-yl)methyl)phenyl)-4-cyanobenzenesulfonamide], for which the EC50 in data set [1] is 7.94 µM. In addition, the “Mouse CLi” value in data set [2] was >50 mL/min/g. The molecule also showed a solubility in data set [3] of 54 µM (≈ 26.7 µg/mL). Further, the chromatographic logD in data set [4] amounted to 5.2.
Taken in the same sequence, the figures for `COc1ccc(S(=O)(=O)Nc2ccc(CN3CCN(C(=O)c4cc(Cl)ccc4OC)CC3)cc2)cc1` [Compound 14, N-(4-((4-(5-chloro-2-methoxybenzoyl)piperazin-1-yl)methyl)phenyl)-4-methoxybenzenesulfonamide] were 2 µM, >50 mL/min/g, 27 µM (≈ 14.3 µg/mL) and 5.2.
The corresponding values for `Cc1ccc(S(=O)(=O)Nc2ccc(CNC3CN(C(=O)c4cccc(Cl)c4)C3)cc2)cc1` [Compound 38, N-(4-(((1-(3-chlorobenzoyl)azetidin-3-yl)amino)methyl)phenyl)-4-methylbenzenesulfonamide] are 12.6 µM, >50 mL/min/g, 70 µM (≈ 32.9 µg/mL) and 4.8.
Taken in the same sequence, the figures for `CN1CCN(S(=O)(=O)Nc2ccc(CN3CCN(C(=O)c4cccc(Cl)c4)CC3)cc2)CC1` [Compound 9, N-(4-((4-(3-chlorobenzoyl)piperazin-1-yl)methyl)phenyl)-4-methylpiperazine-1-sulfonamide] were 15.8 µM, 32 mL/min/g, ≥ 430 µM and 4.1.
As for `Cc1ccc(S(=O)(=O)Nc2ccc(CN3C[C@@H]4CN(C(=O)c5cccc(Cl)c5)C[C@@H]4C3)cc2)cc1` [Compound 35, N-(4-(((3aR,6aS)-5-(3-chlorobenzoyl)hexahydropyrrolo[3,4-c]pyrrol-2(1H)-yl)methyl)phenyl)-4-methylbenzenesulfonamide], the EC50 in data set [1] is 6.31 µM. In addition, in data set [2], the “Mouse CLi” value was >50 mL/min/g. In data set [3], this molecule gave a solubility of 25 µM (≈ 12.8 µg/mL). Further, the chromatographic logD in data set [4] is 5.8.
The corresponding values for `COc1ccc(S(=O)(=O)Nc2ccc(CN3CCN(C(=O)c4cncc(Cl)c4)CC3)cc2)cc1` [Compound 16, N-(4-((4-(5-chloronicotinoyl)piperazin-1-yl)methyl)phenyl)-4-methoxybenzenesulfonamide] are 1 µM, >50 mL/min/g, 171 µM (≈ 85.7 µg/mL) and 4.3.
In the case of `COc1ccc(S(=O)(=O)Nc2ccc(CN3CCN(C(=O)c4ccnc(C)n4)CC3)cc2)cc1` [Compound 19, 4-methoxy-N-(4-((4-(2-methylpyrimidine-4-carbonyl)piperazin-1-yl)methyl)phenyl)benzenesulfonamide], the EC50 in data set [1] is > 50.1 µM. Besides, the “Mouse CLi” value in data set [2] came out at 12 mL/min/g. Also, the concentration in solution in data set [3] (solubility) was 414 µM (≈ 199 µg/mL). Besides, in data set [4], the chromatographic logD came to 3.2.
On to `O=C(c1cccc(Cl)c1)N1CCN(Cc2ccc(NS(=O)(=O)c3ccc4c(c3)OCO4)cc2)CC1` [Compound 6, N-(4-((4-(3-chlorobenzoyl)piperazin-1-yl)methyl)phenyl)benzo[d][1,3]dioxole-5-sulfonamide], for which the EC50 in data set [1] is 0.158 µM. The “Mouse CLi” value in data set [2] was >50 mL/min/g. This molecule also registered a solubility in data set [3] of 33 µM (≈ 17 µg/mL). Besides, the chromatographic logD in data set [4] is 5.2.
Taken in the same sequence, the figures for `COc1ccc(S(=O)(=O)Nc2ccc(CN3CCN(C(=O)Cn4cccnc4=O)CC3)cc2)cc1` [Compound 18, 4-methoxy-N-(4-((4-(2-(2-oxopyrimidin-1(2H)-yl)acetyl)piperazin-1-yl)methyl)phenyl)benzenesulfonamide] were > 50.1 µM, <0.5 mL/min/g, ≥ 336 µM and 2.3.
With “4-methoxy-N-(4-((4-(1-methyl-4-oxo-1,4-dihydroquinoline-2-carbonyl)piperazin-1-yl)methyl)phenyl)benzenesulfonamide [Compound 27]”, the “T. cruzi (pEC50)” value in data set [1] is given as 5.4. Further, in data set [2], the “Mouse CLi” value is >50 mL/min/g. Besides, the solubility in data set [3] is recorded as 29 µM. For the same molecule, in data set [4], the ChromlogDpH7.4 is reported as 5.4.
With `COc1ccc(S(=O)(=O)Nc2ccc(CN3CC[C@H](NC(=O)c4cccc(Cl)c4)C3)cc2)cc1` [Compound 30, (S)-3-chloro-N-(1-(4-((4-methoxyphenyl)sulfonamido)benzyl)pyrrolidin-3-yl)benzamide], the EC50 in data set [1] is 50.1 µM. In data set [2], the “Mouse CLi” value was >50 mL/min/g. In addition, in data set [3], the solubility is 51 µM (≈ 25.5 µg/mL). The chromatographic logD in data set [4] was 5.1.
Taken in the same sequence, the figures for `COc1ccc(S(=O)(=O)Nc2ccc(CN3CCN(C(=O)C4CN(C(C)=O)C4)CC3)cc2)cc1` [Compound 21, N-(4-((4-(1-acetylazetidine-3-carbonyl)piperazin-1-yl)methyl)phenyl)-4-methoxybenzenesulfonamide] were > 50.1 µM, 1.0 mL/min/g, ≥ 511 µM and 2.6.
